Experimental data: patent publication US9339486B2, “Heterocyclic modulators of cannabinoid receptors” (THE CLEVELAND CLINIC FOUNDATION, priority 2008, dated 2016)
Entries after “also recorded” stand apart in the source; their conditions may differ.

Columns and labels:
[1] = test system: spinal nerve ligation neuropathic pain model; experiment: Tactile allodynia in SNL neuropathic pain model (von Frey); format: in vivo, rat
Experimental: Adult, male Sprague Dawley (Harlan Sprague Dawley, Indianapolis, Ind.) rats weighing 120-150 gm were used in experimental procedures approved by the Animal Care and Use Committee of the M. D. Anderson Cancer Center, University of Texas. Animals were housed three per cage on a 12/12 hr light/dark cycle with water and food pellets available ad libitum.
All surgical procedures were performed under deep isoflurane anesthesia in 100% 02. The spinal nerve ligation (SNL) was performed as described previously. Kim, S. H., et al., An Experimental Model for Peripheral Neuropathy Produced by Segmental Spinal Nerve Ligation in the Rat, Pain, 1992, 50:355-63. Briefly, a midline incision above the lumbar spine exposed the left L6 transverse process. The process was then removed, the left L5 and L6 spinal nerves were isolated, and both nerves were tightly ligated with 6-0 silk. Prophylactic antibiotic (norfloxacin 5 mg/kg subcutaneously) and analgesic (buprenorphine, 0.2-0.5 mg/kg, or morphine, 2.5 mg/kg, given subcutaneously) were administered once daily for 3 days. All the experiments were conducted 10-14 days after spinal nerve ligation.
Rats were placed in a compartment with a wire mesh bottom and allowed to acclimate for a minimum of 30 min before testing. Mechanical sensitivity was assessed using a series of Von Frey filaments with logarithmic incremental stiffness (0.41, 0.70, 1.20, 2.00, 3.63, 5.50, 8.50, and 15.1 g) (Stoelting, Wood Dale, Ill.) as previously described, and 50% probability withdrawal thresholds were calculated with the up-down method. Chaplan, S. R., et al., Quantitative Assessment of Tactile Allodynia in the Rat Paw, J. Neurosci. Methods, 1994, 53:55-63; Dixon, W., The Up-and-Down Method for Small Samples, J. Am. Stat. Assoc., 1965, 60:967-78. In brief, beginning with the 2.0-g probe, filaments were applied to the plantar surface of a hind paw for 6-8 s, in an ascending or descending order after a negative or positive withdrawal response, respectively. Six consecutive responses from the first change in the response were used to calculate the withdrawal threshold (in grams). In cases where response thresholds fell outside the range of detection, 15.00 and 0.25 g were, respectively, assigned for continuous negative or positive responses to the limit of stimuli. The percent maximal possible effect (% MPE) was calculated as ([postdrug threshold−baseline threshold]/[cutoff threshold (15 g)−baseline threshold])×100.
Statistical analyses were carried out using BMDP 2007 (Statistical Solutions, Saugus, Mass., USA) and Graph Pad Prism (version 4.03; Graph Pad Software Inc., San Diego, Calif., USA). Data were analyzed using one-way ANOVA, repeated measures ANOVA, or t-test where appropriate. If ANOVA was significant, Tukey-Kramer post hoc analysis was used for multiple group comparison. Area under the curve (AUC) was calculated using the trapezoidal rule. The results are presented as mean±s.e. mean and were considered significant at P<0.05. Analyses of the dose-response curves and statistics were obtained using the pharmacologic software programs of Tallarida and Murray and included calculation of the ED50 values and their 95% confidence intervals (CI). Tallarida, R. J., et al., Manual of Pharmacologic Calculations With Computer Programs, Second ed. New York: Springer-Verlag, 1987.

[2] = target: CB1 (Homo sapiens (Human), UniProt P21554); experiment: Radioligand competition binding, CHO-K1 membranes, [3H]SR141716A
Experimental: Mukherjee, S., et al., Species Comparison and Pharmacological Characterization of Rat and Human CB2 Cannabinoid Receptors, Eur J Pharmacol, 2004, 505:1-9. The competition binding experiment was performed in 96 well plates (Masterblock®, Catalogue number 786201, Greiner Bio-One) containing binding buffer (50 mM Tris pH 7.4, 2.5 mM EDTA, 0.5% protease free BSA, saponine 10 μg/ml), recombinant membrane extracts (2 μg protein/well) and 1 nM [^3H] SR141716A (GE Healthcare, TRK1028, 42 Ci/mmol, diluted in binding buffer). […] The sample is incubated in a final volume of 0.1 ml for 60 min at 25° C. and then filtered on GF/C Unifilter microplate (Perkin Elmer, Catalogue number 6005177) presoaked in 0.05% Brij for 2 hrs at room temperature. Filters are washed six times with 4 ml of cold binding buffer and bound [^3H] SR141716A is determined by liquid scintillation counting. IC50 were determined by non-linear regression using one site competition equation. The inhibition constants (Ki) were calculated using the Cheng Prusoff equation (Ki=IC50/(1+(L/KD)), where L=concentration of radioligand in the assay, and KD=affinity of the radioligand for the receptor).

[3] = target: CB2 (Homo sapiens (Human), UniProt P34972); experiment: CB1/CB2 Functional Assay (GTPγ[35S]), CB2 membranes; format: biochemical
Chain of CB2 (P34972 whole entry): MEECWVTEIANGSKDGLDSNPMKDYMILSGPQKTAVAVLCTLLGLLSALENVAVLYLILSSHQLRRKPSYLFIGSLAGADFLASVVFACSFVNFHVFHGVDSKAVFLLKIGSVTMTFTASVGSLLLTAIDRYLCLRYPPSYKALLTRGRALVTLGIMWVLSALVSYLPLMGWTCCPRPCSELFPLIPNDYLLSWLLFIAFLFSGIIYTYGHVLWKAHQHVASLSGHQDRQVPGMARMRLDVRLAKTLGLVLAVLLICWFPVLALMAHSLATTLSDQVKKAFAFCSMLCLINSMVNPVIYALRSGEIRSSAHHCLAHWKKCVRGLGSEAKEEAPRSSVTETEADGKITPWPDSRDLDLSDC
Experimental: A dose response curve was generated at eight concentrations in duplicate on CB1 and CB2 in light of reference agonists. The reference agonists for cannabinoid receptors was CP55,940. See FIGS. 1A, 1B, 2A, 2B, 3A and 3B.
Membranes (CB1, ES-110-MG or CB2, ES-111-MG) were mixed with GDP (volume:volume) and incubated for at least 15 min on ice. In parallel, GTPγ[^35S] were mixed with the beads (volume:volume) just before starting the reaction. The following reagents were successively added in the wells of an Optiplate: 50 μl of ligand, 20 μl of the membranes:GDP mix, 10 μl of assay buffer for agonist testing and 20 μl of the GTPγ[^35S]: beads mix. The plates were covered with a topseal, shaken on an orbital shaker for 2 min, and then incubated between 30 to 60 min. at room temperature. Then the plates were centrifuged for 10 min at 2000 rpm, incubated at room temperature between 1 to 4 hours and counted for 1 min with a PerkinElmer TopCount reader.

[4] = test system: naïve rats; experiment: Thermal paw withdrawal latency in naïve rats; format: in vivo, rat
Experimental: To determine sensitivity to noxious heat, rats were placed in plexiglass enclosures on a transparent glass surface maintained at 30° C. and allowed to acclimate for 30 min. A thermal testing apparatus, consisting of a heat-emitting projector lamp and an electronic timer, was used. The device was activated after the lamp is placed directly beneath the planter surface of the hindpaw. The paw withdrawal latency in response to the radiant heat was recorded by a digital timer. A cutoff of 30 s was used to prevent potential tissue damage. After the baseline was measured, three groups of naïve rats (n=10) received 1.0, 3.0, or 10 mg/kg of the compound of Example 3 i.p. Response latencies were determined twice for each rat before drug injection and at 5, 10, 15, 30, 45, 60, 90 and 120 min after IP injection. The percent maximal possible effect (% MPE) was calculated as ([postdrug latency−baseline latency]/[cutoff time (30 s)−baseline latency])×100.

CC1(Cc2ccccc2)COc2cc(C(=O)N3CCCCC3)ccc21 (stereo not shown) [Example 3, 3-benzyl-3-methyl-2,3-dihydrobenzofuran-6-carboxylic acid-piperidine amide]
antiallodynic effect compared with 15 mg/kg AM1241 i.p. ([1]; 10 mg/kg i.p.): significantly (P<0.001) greater
ED50 ([1]; Rattus norvegicus, ip, 0.5 h, i.p., at 30 min, SNL model, read-out: ED50 anti-allodynic effect (tactile allodynia)): 7.48 mg/kg
effect of AM251 pretreatment (5 mg/kg i.p.) on antiallodynic effects of the compound ([1]; compound 10 mg/kg i.p., AM251 15 min prior): did not affect the antiallodynic effects; also recorded: had no effect
effect of AM630 pretreatment (5 mg/kg i.p.) on antiallodynic effects of the compound ([1]; compound 10 mg/kg i.p., AM630 15 min prior): antagonized the effects; also recorded: reversed the antiallodynic effects; also recorded: significantly reversed
effect of naloxone pretreatment (10 mg/kg i.p.) on antiallodynic activity ([1]; compound of Example 3 10 mg/kg i.p., naloxone 15 min prior): did not affect the antiallodynic effects; also recorded: had no effect
effect on tactile allodynia ([1]; i.p. 5, 10, 15 mg/kg): attenuated tactile allodynia in a dose-related manner
Ki ([2]; CHO-K1 membranes, 1 nM [3H]SR141716A, read-out: Mean Ki (nM) hCB1): > 10000 nM
radioactive ligand displacement at hCB1 receptors ([2]; up to 10 μM): did not demonstrate detectable radioactive ligand displacement
Compound Function [3]: Agonist
EC50 ([3]; read-out: EC50 (nM) for GTP Binding): 160 nM
% Activation Average ([3]; reference agonist CP55,940): 87.2%
nociceptive effect of a thermal stimulus applied to hind paws ([4]; 1 mg/kg or 3 mg/kg i.p.): did not block
nociceptive effect of a thermal stimulus applied to hind paws ([4]; 10 mg/kg i.p.): short-lasting antinociceptive effect
